The supplement of paper PMC11208160

test: recombinant UMI read abundance after kanamycin selection (control-corrected) (log10(CPM+1)); higher = more efficient recombination; extreme values may be limits of the assay; sequences stand for … in AGTGCAGAGAAAATCGGCCAGTTTTCTCTGCCTGCAGTCCGCATGCCGTGGGACCCCTTGGGTTCTAACCTGTTGCCTAGATTTATGCAGCGGACTGCCTTTCTCCCAAAGTGATAAACCGG…AGGTTGGTTTCACT; site = the 11-nt donor
Summary of the method: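 Under IPTG (0.07 mM) plus kanamycin, or without selection, Escherichia coli carrying a UMI-tagged donor and donor-binding-loop pair library and a target plasmid for the IS621 bridge recombinase were plated in two replicates. Recombinant UMIs were PCR-amplified across the donor–target junction and sequenced. Counts were converted to CPM, averaged over replicates, scaled by control-derived factors and reported as log10(CPM+1).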
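Further: IS621 bridge recombinase in Escherichia coli cells against a fixed T5 target plasmid.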

Row | Sequence | recombinant UMI read abundance (log10)
1 | GGAACCCCATGGACCGGTTTTCCCGGTAATCCGTATTTGTC (site GGAACCCCTGA) | 0.334
2 | GGAAGCACATGGACCGGTTTTCCCGGTAATCCGTATTTGTG (site GGAAGCACTCA) | 1.4
3 | GGAATTCCATGGACCGGTTTTCCCGGTAATCCGTATTTGCA (site GGAATTCCTTG) | 0
4 | GGACCACCATGGACCGGTTTTCCCGGTAATCCGTATTTGCG (site GGACCACCTCG) | 0.0308
5 | GGACGCTCATGGACCGGTTTTCCCGGTAATCCGTATTTGAG (site GGACGCTCTCT) | 1.55
6 | GGACGTCCATGGACCGGTTTTCCCGGTAATCCGTATTTGCC (site GGACGTCCTGG) | 1.75
7 | GGACTAGCATGGACCGGTTTTCCCGGTAATCCGTATTTGCG (site GGACTAGCTCG) | 2.05
8 | GGACTCACATGGACCGGTTTTCCCGGTAATCCGTATTTGCA (site GGACTCACTTG) | 2.37
9 | GGAGCCCCATGGACCGGTTTTCCCGGTAATCCGTATTTGCG (site GGAGCCCCTCG) | 0.00647
10 | GGAGCGACATGGACCGGTTTTCCCGGTAATCCGTATTTGGA (site GGAGCGACTTC) | 0.237
11 | GGAGCGGCATGGACCGGTTTTCCCGGTAATCCGTATTTGGT (site GGAGAGGCTAC) | 0
12 | GGAGCGGCATGGACCGGTTTTCCCGGTAATCCGTATTTGGT (site GGAGCGGCTAC) | 0.387
13 | GGAGCGGCATGGACCGGTTTTCCCGGTAATCCGTATTTGGT (site GGAGGGGCTAC) | 0.00705
14 | GGAGCGGCATGGACCGGTTTTCCCGGTAATCCGTATTTGGT (site GGAGTGGCTAC) | 0.101
15 | GGAGGTTCATGGACCGGTTTTCCCGGTAATCCGTATTTGAA (site GGAGGTTCTTT) | 1.66
16 | GGAGTGCCATGGACCGGTTTTCCCGGTAATCCGTATTTGGT (site GGAGTGACTAC) | 0.00343
17 | GGAGTGCCATGGACCGGTTTTCCCGGTAATCCGTATTTGGT (site GGAGTGCCTAC) | 0.0291
18 | GGAGTGCCATGGACCGGTTTTCCCGGTAATCCGTATTTGGT (site GGAGTGGCTAC) | 0.00926
19 | GGAGTGCCATGGACCGGTTTTCCCGGTAATCCGTATTTGGT (site GGAGTGTCTAC) | 1.21
20 | GGAGTGGCATGGACCGGTTTTCCCGGTAATCCGTATTTGGA (site GGAGTGGCTAC) | 0.0116
21 | GGAGTGGCATGGACCGGTTTTCCCGGTAATCCGTATTTGGA (site GGAGTGGCTCC) | 0.019
22 | GGAGTGGCATGGACCGGTTTTCCCGGTAATCCGTATTTGGA (site GGAGTGGCTGC) | 0
23 | GGAGTGGCATGGACCGGTTTTCCCGGTAATCCGTATTTGGA (site GGAGTGGCTTC) | 0.645
24 | GGATATACATGGACCGGTTTTCCCGGTAATCCGTATTTGCC (site GGATAAACTGG) | 0
25 | GGATATACATGGACCGGTTTTCCCGGTAATCCGTATTTGCC (site GGATACACTGG) | 0.982

Row | Sequence | recombinant UMI read abundance (log10)
26 | GGATATACATGGACCGGTTTTCCCGGTAATCCGTATTTGCC (site GGATAGACTGG) | 0.756
27 | GGATATACATGGACCGGTTTTCCCGGTAATCCGTATTTGCC (site GGATATACTGG) | 1.81
28 | GGATCACCATGGACCGGTTTTCCCGGTAATCCGTATTTGCT (site CGATCATCTAG) | 0
29 | GGATCACCATGGACCGGTTTTCCCGGTAATCCGTATTTGCT (site GGATCACCTAG) | 0.0128
30 | GGATCAGCATGGACCGGTTTTCCCGGTAATCCGTATTTGAA (site GGATCAGCTTT) | 1.19
31 | GGATCATCATGGACCGGTTTTCCCGGTAATCCGTATTTGCC (site CGATCATCTAG) | 0
32 | GGATCATCATGGACCGGTTTTCCCGGTAATCCGTATTTGCC (site GGATCATCTGG) | 0.722
33 | GGATCGTCATGGACCGGTTTTCCCGGTAATCCGTATTTGCC (site GGATCGTCTGG) | 2.05
34 | GGATGCACATGGACCGGTTTTCCCGGTAATCCGTATTTGTA (site GAATGCACTTA) | 0.31
35 | GGATGCACATGGACCGGTTTTCCCGGTAATCCGTATTTGTA (site GCATGCACTTA) | 0.0182
36 | GGATGCACATGGACCGGTTTTCCCGGTAATCCGTATTTGTA (site GGATGCACTTA) | 1.62
37 | GGATGCACATGGACCGGTTTTCCCGGTAATCCGTATTTGTA (site GTATGCACTTA) | 0.439
38 | GGATGCTCATGGACCGGTTTTCCCGGTAATCCGTATTTGCT (site GGATGCTCTAG) | 3
39 | GGATTTACATGGACCGGTTTTCCCGGTAATCCGTATTTGAG (site GGATTTACTCT) | 0.713
40 | GGCAAATCATGGACCGGTTTTCCCGGTAATCCGTATTTGCT (site GGCAAATCTAG) | 0
41 | GGCAACCCATGGACCGGTTTTCCCGGTAATCCGTATTTGTT (site GGCAACCCTAA) | 0.0163
42 | GGCAACCCATGGACCGGTTTTCCCGGTAATCCGTATTTGTT (site GGCCACCCTAA) | 0.0118
43 | GGCAACCCATGGACCGGTTTTCCCGGTAATCCGTATTTGTT (site GGCGACCCTAA) | 0.0135
44 | GGCAACCCATGGACCGGTTTTCCCGGTAATCCGTATTTGTT (site GGCTACCCTAA) | 0.0252
45 | GGCAATACATGGACCGGTTTTCCCGGTAATCCGTATTTGAA (site GGCAATACTTT) | 0.862
46 | GGCAATACATGGACCGGTTTTCCCGGTAATCCGTATTTGAA (site GGCAATCCTTT) | 0.00332
47 | GGCAATACATGGACCGGTTTTCCCGGTAATCCGTATTTGAA (site GGCAATGCTTT) | 0
48 | GGCAATACATGGACCGGTTTTCCCGGTAATCCGTATTTGAA (site GGCAATTCTTT) | 0
49 | GGCAATCCATGGACCGGTTTTCCCGGTAATCCGTATTTGAA (site AGCAATCCTTT) | 0.00634
50 | GGCAATCCATGGACCGGTTTTCCCGGTAATCCGTATTTGAA (site CGCAATCCTTT) | 0

Row | Sequence | recombinant UMI read abundance (log10)
51 | GGCAATCCATGGACCGGTTTTCCCGGTAATCCGTATTTGAA (site GACAATCCTTT) | 0
52 | GGCAATCCATGGACCGGTTTTCCCGGTAATCCGTATTTGAA (site GCCAATCCTTT) | 0
53 | GGCAATCCATGGACCGGTTTTCCCGGTAATCCGTATTTGAA (site GGAAATCCTTT) | 0
54 | GGCAATCCATGGACCGGTTTTCCCGGTAATCCGTATTTGAA (site GGCAAACCTTT) | 0
55 | GGCAATCCATGGACCGGTTTTCCCGGTAATCCGTATTTGAA (site GGCAACCCTTT) | 0.00936
56 | GGCAATCCATGGACCGGTTTTCCCGGTAATCCGTATTTGAA (site GGCAAGCCTTT) | 0.0191
57 | GGCAATCCATGGACCGGTTTTCCCGGTAATCCGTATTTGAA (site GGCAATACTTT) | 0.0044
58 | GGCAATCCATGGACCGGTTTTCCCGGTAATCCGTATTTGAA (site GGCAATCCTAT) | 0
59 | GGCAATCCATGGACCGGTTTTCCCGGTAATCCGTATTTGAA (site GGCAATCCTCT) | 0.0139
60 | GGCAATCCATGGACCGGTTTTCCCGGTAATCCGTATTTGAA (site GGCAATCCTGT) | 0
61 | GGCAATCCATGGACCGGTTTTCCCGGTAATCCGTATTTGAA (site GGCAATCCTTA) | 0.00549
62 | GGCAATCCATGGACCGGTTTTCCCGGTAATCCGTATTTGAA (site GGCAATCCTTC) | 0.00387
63 | GGCAATCCATGGACCGGTTTTCCCGGTAATCCGTATTTGAA (site GGCAATCCTTG) | 0
64 | GGCAATCCATGGACCGGTTTTCCCGGTAATCCGTATTTGAA (site GGCAATCCTTT) | 0.434
65 | GGCAATCCATGGACCGGTTTTCCCGGTAATCCGTATTTGAA (site GGCAATGCTTT) | 0.00508
66 | GGCAATCCATGGACCGGTTTTCCCGGTAATCCGTATTTGAA (site GGCAATTCTTT) | 0
67 | GGCAATCCATGGACCGGTTTTCCCGGTAATCCGTATTTGAA (site GGCACTCCTTT) | 0
68 | GGCAATCCATGGACCGGTTTTCCCGGTAATCCGTATTTGAA (site GGCAGTCCTTT) | 0
69 | GGCAATCCATGGACCGGTTTTCCCGGTAATCCGTATTTGAA (site GGCATTCCTTT) | 0.0126
70 | GGCAATCCATGGACCGGTTTTCCCGGTAATCCGTATTTGAA (site GGCCATCCTTT) | 0.0223
71 | GGCAATCCATGGACCGGTTTTCCCGGTAATCCGTATTTGAA (site GGCGATCCTTT) | 0
72 | GGCAATCCATGGACCGGTTTTCCCGGTAATCCGTATTTGAA (site GGCTATCCTTT) | 0.316
73 | GGCAATCCATGGACCGGTTTTCCCGGTAATCCGTATTTGAA (site GGGAATCCTTT) | 0.0169
74 | GGCAATCCATGGACCGGTTTTCCCGGTAATCCGTATTTGAA (site GGTAATCCTTT) | 0.00354
75 | GGCAATCCATGGACCGGTTTTCCCGGTAATCCGTATTTGAA (site GTCAATCCTTT) | 0.236
